Measured values as given in US20240133884A1, “COMPOSITIONS AND METHODS FOR DETECTING TRYPANOSOMA CRUZI INFECTION” (University of Georgia Research Foundation, Inc., priority 2022, published 2024).
“Also recorded” adds a separate entry of the source.

Columns and labels:
T. cruzi isolates = assay: In vitro potency of AN14353 for a range of T. cruzi isolates of different genetic lineages (DTUs); format: cell-based, Trypanosoma cruzi
Method: The in vitro anti-T. cruzi amastiogote activity assay was performed and optimized based on the protocol described previously (Canavaci, et al., PLoS neglected tropical diseases 4, e740 (2010)). The change in tdTomato fluorescence intensity was determined as a measurement of growth over 72 hours of culture. For assaying drug effects on extracellular amastigotes, trypomastigotes were collected from infected Vero cell cultures and converted in acidic media as previously described (Tomlinson, et al., Parasitology 110 (Pt 5), 547-554 (1995)). Amastigotes (50,000/well) were incubated with 2-fold serial dilutions of compounds for 48 hours. The ATP production was used as an indication of growth in this case, and was measured by ATPlite Luminescence ATP Detection Assay System (PerkinElmer). Both fluorescence and luminescence were read using a BioTek Synergy Hybrid Multi-Mode reader equipped with the software Gene5 v 2.0 (BioTek). The dose-response curve was generated by […] analysis with GraphPad Prism v9.4.0 (GraphPad Software). IC50 was determined as the drug concentration that was required to inhibit 50% of growth compared to that of parasites with no drug exposure. […]

anti-T. cruzi antibodies = assay: Luminex-based multiplex serological analysis in macaques; format: in vivo, rhesus macaque (Macaca mulatta); details: treated macaques, over 42 months after end of treatment
Description: For a number of smaller proteins, fusions of up to 2 individual genes are employed for some target proteins in order to expand the array of antibodies being detected while controlling costs and complexity of the assay. (TritrypDb.org identifiers: Tc1=fusion of TcBrA4_0116860 and TcYC6_0028190; Tc2=fusion of TcBrA4_0088420 and TcBrA4_0101960; Tc3=fusion of TcBrA4_0104680 and TcBrA4_0101980; Tc4=fusion of TcBrA4_0028480 and TcBrA4_0088260; Tc5=fusion of TcYC6_0100010 and TcBrA4_0074300; Tc7=fusion of TcYC6_0083710 and TcBrA4_0130080; Tc8=TcYC6_0037170; Tc11=TcYC6_0124160; Tc17=fusion of TcBrA4_0028230 and TcBrA4_0029760; Kn107=TcCLB.508355.250; G10=TcCLB.504199.20). Macaque antibody binding to individual beads in the Multiplex assays was detected with donkey anti-human IgG (H+L) conjugated to phycoerythrin (Jackson ImmunoResearch) in a 1:200 dilution.

T. cruzi = test system: T. cruzi
Method: A total of 22 rhesus macaques that had been confirmed to be serologically- and PCR-positive for T. cruzi were utilized in these studies. Using 19 animals in the treatment group provided 85% power of detecting 100% efficacy. The 19 animals were treated with a 30 mg/kg dose of AN15368 delivered in food treats once a day for 60 days. The remaining three animals on the study were maintained as untreated control animals and received food treats but were not dosed with AN15368.
The selected dose of 30 mg/kg in NHP was determined based upon the following rationale. […] Under light-anesthesia/sedation, peripheral blood samples were collected from each animal prior to treatment and at 7 time points following. Blood analysis (CBC and serum chemistry assays) and physical exams to evaluate the health of the study animals were performed on each animal prior to the beginning of the study and also at three time points during the treatment protocol.
Blood samples from each macaque were collected at various time points and processed for quantification of T. cruzi DNA by real-time qPCR. Between 8-ml of whole blood collected in EDTA anticoagulant tubes was subjected to DNA extraction using the Omega E.Z.N.A. Blood DNA Maxi Kit (Omega Bio-Tek), following the manufacturer's instructions for up to 10 ml whole blood and using a total of 650 μl of elution buffer. Each round of extractions included a negative (no-template) control comprised of 10 ml PBS. The concentration of DNA in the eluted solution was quantified after each extraction using an Epoch microplate spectrophotometer (BioTek).
DNA from each sample was then subjected to a series of two qPCR assays for detection of T. cruzi satellite DNA. […] Positive (DNA extracted from T. cruzi Sylvio X10 clone 4, American Type Culture Collection, ATCC #50800, known concentration 1.7×10^−3 parasite equivalents) and negative (water) controls were included in each PCR plate for both assays. C1000 Touch Bio-Rad CFX96 real-time PCR detection system was used for both assays under the following cycling conditions: (i) initial denaturation, 95°, 3 min; (ii) denaturation, 95° C., 15 s; (iii) annealing, 58° C., 1 min; (iv)×50 cycles. FAM and VIC channels were selected for each read.
Frozen tissues were screened for T. cruzi DNA using 8 mm biopsies (Sklar instruments #96-1130), collecting 3 to 10 individual ˜100 μl tissue punches for each tissue type and one of more pooled sample consisting of five punches from different areas of the tissue, totaling ˜500 μl per pool. The tissues sampled included liver, heart, fat, esophagus, quadricep, bicep, large intestine, and brain, as well as tongue and spleen in a few instances. Two individual and one pooled sample of tissues from an uninfected macaque was collected for each sampling batch. DNA from macaque tissue was extracted and analyzed as previously described (Bustamante, et al., Sci Transl Med 12 (2020)) with the exceptions that the purification was scaled up to accommodate the larger amount of tissue in the pooled samples and the range for the standards was 2.6×10^2-2.6×10^−3 parasite equivalents using the kDNA minicircle S35 and S36 primers.

[1] = macaques, 30 mg/kg once a day for 60 days, post-treatment time points, 30 mg/kg

## Cc1c(C(=O)N[C@H](C(=O)OCc2ccc(F)c(F)c2)C(C)C)ccc2c1B(O)OC2 [AN14353]
T. cruzi isolates; in words
  in vitro potency for a range of T. cruzi isolates: high in vitro potency
T. cruzi isolates; strain 20290, DTU TcI
  IC50: 3 nM
  IC90: 5 nM
T. cruzi isolates; strain 20392, DTU TcIV
  IC50: 5 nM
  IC90: 10 nM
T. cruzi isolates; strain ARC0704, DTU TcI
  IC50: 3 nM
  IC90: 7 nM
T. cruzi isolates; strain CL, DTU TcVI
  IC50: 6 nM
  IC90: 18 nM
T. cruzi isolates; strain Colombiana, DTU TcI
  IC50: 7 nM
  IC90: 10 nM
T. cruzi isolates; strain M5631, DTU TcIII
  IC50: 1 nM
  IC90: 3 nM
T. cruzi isolates; strain Montalvania, DTU TcI
  IC50: 1 nM
  IC90: 2 nM
T. cruzi isolates; strain Tul8, DTU TcII
  IC50: 1 nM
  IC90: 2 nM

## Cc1c(C(=O)N[C@H](C(=O)OCC2CCOCC2)C(C)C)ccc2c1B(O)OC2 [AN15368]
anti-T. cruzi antibodies
  antibody levels to recombinant T. cruzi proteins: declines in antibody levels
T. cruzi; 9 treated macaques, 84-99 sample sites/animal
  T. cruzi DNA by PCR in post-necropsy tissues: negative
T. cruzi; 60 day course of treatment in NHPs
  overall safety / toxicity: no overt safety or reproductive health concerns; also recorded: no overt toxicity
T. cruzi; in vivo
  adverse events: No adverse events
  mean ALT and ALP, levels of lymphocytes and monocytes in blood: mildly elevated
T. cruzi; in words (FIGS. 4A-4K)
  cure of chronically infected rhesus macaques: uniformly cures chronically infected rhesus macaques
T. cruzi; [1]
  culture of parasites from blood (hemoculture): remained negative
  parasite DNA in blood (PCR): remained negative
T. cruzi; naturally infected NHPs, 30 mg/kg, 60 days
  efficacy / cure: 100%
